The values below come from patent US8053197B2, “Methods for detecting and treating autoimmune disorders” (Oregon Health & Science University, priority 2004, dated 2011).

Assay [1] has as its system Foxp3. The experiment in a line: E2 induction of Foxp3 in vitro in purified CD4+CD25− T cells (real-time RT-PCR). Format: cell-based, mice. How it is done: FIG. 1 is a graph illustrating real-time RT-PCR analysis of Foxp3 expression in vitro in purified (>99%) CD4+CD25− T cells. E2 in combination with TCR stimulation by anti-CD3 antibody for 24 hours induced Foxp3 mRNA approximately 3-fold over levels in untreated cells or in anti-CD3 stimulated cells in the absence of E2. Foxp3 levels are shown relative to the housekeeping gene L32. Error bars are standard deviation of triplicate samples. One representative result of three is shown.
The capacity of E2 to induce Foxp3 expression in vitro in purified (>99%) CD4+CD25− T cells was tested. […]
For real-time RT-PCR analysis, total RNA was prepared using the Total RNeasy kit (Qiagen, Germantown, Md.) and cDNA was prepared using random hexamer primers (Invitrogen, Grand Island, N.Y.). Foxp3 message expression was quantified using the ABI 7000 Real-Time PCR System (Applied Biosystems, Foster City, Calif.). Amplification was performed in a total volume of 25 μl for 40 cycles and products were detected using SYBR Green I dye (Molecular Probes, Eugene, Oreg.). Samples were run in triplicate and relative expression level was determined by normalization to L32 with results presented as relative expression (RE) units. […] FoxP3 was detected with rabbit-anti-FoxP3 antiserum and standard chemiluminescence. […]
In general terms: In qPCR the cycle at which signal appears reflects the starting amount.

For assay [2], the system named is Foxp3. The experiment in a line: Foxp3 expression in CD4+ T cells of E2-treated, MOG-35-55 immunized mice at peak of EAE. Format: in vivo, C57BL/6 mice. The note with it: peak of disease. How it is done: FIG. 2 is a graph illustrating real-time RT-PCR analysis of Foxp3. C57BL/6 and Esr^−/− mice were implanted with placebo or 2.5 mg E2 pellets and immunized 1 week later with 200 μg MOG-35-55 peptide in CFA with pertussis toxin on days 0 and +2. At the peak of clinical disease, mice were sacrificed and splenocytes sorted for CD4+ cells. cDNA was prepared and analyzed by real-time PCR to determine Foxp3 mRNA levels. Data are presented as Foxp3 relative to housekeeping gene L32. Error bars are standard deviation of triplicate samples.
Control lane is lysate of 293T cells transfected with Foxp3 cDNA. The CD25+ fraction (among CD4+) of each sample is noted above bars.
Female naïve or syngeneic pregnant (19 days) C57BL/6 mice were purchased from Jackson Laboratory (Bar Harbor, Me.). Estrogen receptor alpha knockout (Esrl^−/−) mice were purchased from Taconic (Germantown, N.Y.). Most experiments represent cells pooled from at least five mice per experimental condition.
For E2 therapy, a 3 mm pellet containing 2.5 mg or 15 mg (as indicated) 17β-estradiol (Innovative Research of America, Sarasota, Fla.) was implanted s.c. (dorsally) 7 days prior to immunization (EAE) or 14 days prior to analysis of naïve mice. These pellets are designed to release their contents at a constant rate over 60 days. Control animals were implanted with pellets containing saline. Serum levels of E2 were monitored by RIA. […]
For real-time RT-PCR analysis, total RNA was prepared using the Total RNeasy kit (Qiagen, Germantown, Md.) and cDNA was prepared using random hexamer primers (Invitrogen, Grand Island, N.Y.). Foxp3 message expression was quantified using the ABI 7000 Real-Time PCR System (Applied Biosystems, Foster City, Calif.). Amplification was performed in a total volume of 25 μl for 40 cycles and products were detected using SYBR Green I dye (Molecular Probes, Eugene, Oreg.). Samples were run in triplicate and relative expression level was determined by normalization to L32 with results presented as relative expression (RE) units. […]

In the case of `C[C@]12CC[C@@H]3c4ccc(O)cc4CC[C@H]3[C@@H]1CC[C@@H]2O` [E2, 17β-estradiol], the “fraction of CD25+ cells over TCR stimulation alone” value in the assay with Foxp3 [1] was “increased”. The “Foxp3 mRNA induction over levels in untreated cells” value in the assay on Foxp3 [1] (E2 in combination with anti-CD3 antibody for 24 hours, relative to L32) is on record as “approximately 3 fold”. The “Foxp3 mRNA levels in CD4+ T cells increased” value with Foxp3 [2] (Esr1−/− mice lacking estrogen receptor-α, MOG-35-55 immunized) is on record as “not”. In addition, in the assay on Foxp3 [2] (western blot and flow cytometry), the “FoxP3 protein expression and CD25+ number in E2-treated mice, Esr1−/− versus wild-type” value is “substantially lower”. In the assay with Foxp3 [2] (wild-type C57BL/6 mice, MOG-35-55 immunized, versus placebo), the “Foxp3 mRNA levels in CD4+ T cells” value is reported as “significantly increased”.
